According to US4730005A, “Leukotriene antagonist” (SmithKline Beckman Corporation, priority 1986, dated 1988):

Molecular target: T1, leukotriene D4 (LTD4) induced contraction of guinea pig tracheal tissues (Cavia porcellus, UniProt Q2NNR5)
T1 construct: Guinea pig (adult male albino Hartley strain) tracheal spiral strips; from tissue; host or cells: guinea pig trachea (spiral strips, adult male albino Hartley strain)
T1 sequence (Q2NNR5 1-340): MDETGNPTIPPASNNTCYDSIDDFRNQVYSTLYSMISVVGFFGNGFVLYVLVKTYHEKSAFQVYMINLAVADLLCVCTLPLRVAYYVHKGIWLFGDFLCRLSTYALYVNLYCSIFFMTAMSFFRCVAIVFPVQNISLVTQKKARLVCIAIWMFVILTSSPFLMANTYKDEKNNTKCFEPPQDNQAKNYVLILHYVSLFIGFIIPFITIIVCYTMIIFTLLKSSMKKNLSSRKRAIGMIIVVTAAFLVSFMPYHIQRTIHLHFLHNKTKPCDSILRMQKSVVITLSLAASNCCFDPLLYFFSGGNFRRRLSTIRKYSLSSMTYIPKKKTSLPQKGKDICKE
Assay: in vitro inhibition of LTD4 induced contraction of guinea pig tracheal spiral strips
Format: cell-based, guinea pig (adult male albino Hartley strain)
Conditions: guinea pig trachea, LTD4 agonist, 30 min pretreatment with test compound
Method: The leukotriene antagonist activity of the compounds of this invention is measured by the ability of the compounds to inhibit the leukotriene induced contraction of guinea pig tracheal tissues in vitro and to inhibit leukotriene induced bronchoconstriction in guinea pigs in vivo. The following methodologies were employed: In vitro: Guinea pig (adult male albino Hartley strain) tracheal spiral strips of approximate dimensions 2 to 3 mm cross-sectional width and 3.5 cm length were bathed in modified Krebs buffer in jacketed 10 ml tissue bath and continously aerated with 95% 02 /5% CO2. The tissues were connected via silk suture to force displacement transducers for recording isometric tension. The tissues were equilibrated for 1 hr., pretreated for 15 minutes with meclofenamic acid (1 μM) to remove intrinsic prostaglandin responses, and then pretreated for an additional 30 minutes with either the test compound or vehicle control. A cumulative concentration-response curve for LTD4 on triplicate tissues was generated by successive increases in the bath concentration of the LTD4. In order to minimize intertissue variability, the contractions elicited by LTD4 were standardized as a percentage of the maximum response obtained to a reference agonist, carbachol (10 μM). Calculations: The averages of the triplicate LTD4 concentration-response curves both in the presence and absence of the test compound were plotted on log graph paper. The concentration of LTD4 needed to elicit 30% of the contraction elicited by carbachol was measured and defined as the EC30. The -log KB value for the test compound was determined by the following equations: [formula] In vivo: Anesthetized, spontaneously breathing guinea pigs (Adult male albino Hartley strain) were monitored on a Buxco pulmonary mechanics computer. Changes in airway resistance (RL) were calculated by the computer on a breath-by-breath basis at isovolumic points from signals measuring airflow and transpulmonary pressure using differential pressure transducers. Animals received either test compound or vehicle control intravenously via the jugular vein. LTD4 was then injected into the jugular vein. The bronchoconstriction produced was reflected by % changes in airways resistance relative to the baseline values obtained prior to injection of the test compound or vehicle control. Each guinea pig received either vehicle control or test compound.

| Structure (SMILES) | Kb |
| --- | --- |
| CCCCCCCCCCCCc1ccccc1C(SCC(=O)O)SCC(=O)O [1 1 C12 H25 H, 3,5-dithia-4-(2-dodecylphenyl)heptanedioic acid] | 1260 nM |
| O=C(O)CCSC(SCCC(=O)O)c1ccccc1CCCCCC/C=C\c1ccccc1 [2 2 (CH2)6CHCHphenyl H, 4,6-Dithia-5-[2-(8-phenyl-7(Z)-octenyl)phenyl]nonanedioic acid] | 631 nM |
| O=C(O)CCSC(SCCC(=O)O)c1ccccc1CCCCCCCSc1ccccc1 [2 2 C7 H4 S phenyl H, 4,6-Dithia-5-[2-(7-phenylthioheptyl)phenyl]nonanedioic acid] | 398 nM |
| O=C(O)CCSC(SCCC(=O)O)c1ccccc1CCCCCCCCC1CCCCC1 [2 2 C8 H16 cyclohexyl H, 4,6-Dithia-5-[2-(8-cyclohexyloctyl)phenyl]nonanedioic acid] | 3160 nM |
| O=C(O)CCSC(SCCC(=O)O)c1cc(C(F)(F)F)ccc1CCCCCCCCc1ccccc1 [2 2 C8 H16 phenyl CF3, 4,6-Dithia-5-[2-(8-phenyloctyl)-5-trifluoromethylphenyl]nonanedioic acid] | 251 nM |
| O=C(O)CCSC(SCCC(=O)O)c1ccccc1CCCCCCCCc1ccc(C(F)(F)F)cc1 [2 2 C8 H16(4-CF3 phenyl) H, 4,6-Dithia-5-[2-(8-(4-trifluoromethylphenyl)octyl)phenyl]nonanedioic acid] | 631 nM |
| CCCCCCCCc1ccccc1C(SCCC(=O)O)SCCC(=O)O [2 2 C8 H17 H, 4,6-dithia-5-(2-octylphenyl)nonanedioic acid] | 6310 nM |
| C#CCCCCCCCCCCc1ccccc1C(SCCC(=O)O)SCCC(=O)O [2 2 C10 H20 CCH H, 4,6-Dithia-5-[2-(11-dodecynyl)phenyl]nonanedioic acid] | 398 nM |
| CCCCCCCCCCC#Cc1ccccc1C(SCCC(=O)O)SCCC(=O)O [2 2 CCC10 H21 H, 4,6-Dithia-5-[2-(1-dodecyn-1-yl)phenyl]nonanedioic acid] | 794 nM |
| CCCCCCCCCC/C=C/c1ccccc1C(SCCC(=O)O)SCCC(=O)O [2 2 CHCHC10 H21 trans H, 4,6-Dithia-5-[2-(1-trans-dodecenyl)phenyl]nonanedioic acid] | 1580 nM |
| O=C(O)CCSC(SCCC(=O)O)c1cccc(CCCCCCCCc2ccccc2)c1 [2 2 H C8 H16 phenyl, 4,6-dithia-5-[3-(8-phenyloctyl)phenyl]nonanedioic acid] | 1000 nM |
| CCCCCCCCCOc1cccc(C(SCCC(=O)O)SCCC(=O)O)c1 [2 2 H OC9 H19, 4,6-dithia-5-(3-nonyloxyphenyl)nonanedioic acid] | 1260 nM |
| CCCCCCCCCCCOc1cccc(C(SCCC(=O)O)SCCC(=O)O)c1 [2 2 H OC11 H23, 4,6-dithia-5-(3-undecyloxyphenyl)nonanedioic acid] | 794 nM |
| CCCCC/C=C\C/C=C\COc1cccc(C(SCCC(=O)O)SCCC(=O)O)c1 [2 2 H OCH2 CHCHCH2 CHCHC5 H11, 4,6-dithia-5-[3-(2(Z),5(Z)-undecadienyloxy)phenyl]nonanedioic acid] | 794 nM |
| CCCCCCCCCOc1ccccc1C(SCCC(=O)O)SCCC(=O)O [2 2 OC9 H19 H, 4,6-dithia-5-(2-nonyloxyphenyl)nonanedioic acid] | 1580 nM |
| CCCCCCCCCCCOc1ccc(Br)cc1C(SCCC(=O)O)SCCC(=O)O [2 2 OC11 H23 Br, 4,6-dithia-5-(5-bromo-2-undecyloxyphenyl)nonanedioic acid] | 1000 nM |
| CCCCCCCCCCCOc1ccc(OC)cc1C(SCCC(=O)O)SCCC(=O)O [2 2 OC11 H23 CH3 O, 4,6-dithia-5-(5-methoxy-2-undecyloxyphenyl)nonanedioic acid] | 1260 nM |
| CCCCCCCCCCCOc1ccc([N+](=O)[O-])cc1C(SCCC(=O)O)SCCC(=O)O [2 2 OC11 H23 NO2, 4,6-dithia-5-(5-nitro-2-undecyloxyphenyl)nonanedioic acid] | 794 nM |
| CCCCCCCCCCCOc1ccc(O)cc1C(SCCC(=O)O)SCCC(=O)O [2 2 OC11 H23 OH, 4,6-dithia-5-(5-hydroxy-2-undecyloxyphenyl)nonanedioic acid] | 1000 nM |
